The experiment deals with CDK1 (Homo sapiens, UniProt P06493). The experiment in a line: Cyclin dependent protein kinase assay, CDK1. The class given is biochemical. As to conditions: inhibitory activity against CDK1, baculovirus-expressed enzyme, [γ-32P]ATP peptide phosphorylation.
Chain of CDK1 (P06493 whole entry, species assumed): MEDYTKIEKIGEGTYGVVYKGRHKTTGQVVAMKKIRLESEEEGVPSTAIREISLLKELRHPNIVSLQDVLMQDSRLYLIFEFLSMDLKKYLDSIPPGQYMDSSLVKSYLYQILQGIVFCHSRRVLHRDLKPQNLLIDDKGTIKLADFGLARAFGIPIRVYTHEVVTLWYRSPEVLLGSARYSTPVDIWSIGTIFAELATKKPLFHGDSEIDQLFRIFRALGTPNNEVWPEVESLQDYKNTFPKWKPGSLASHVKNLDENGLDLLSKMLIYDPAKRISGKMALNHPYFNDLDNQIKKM
Chain of CDK1 (P14635 whole entry partner, species assumed): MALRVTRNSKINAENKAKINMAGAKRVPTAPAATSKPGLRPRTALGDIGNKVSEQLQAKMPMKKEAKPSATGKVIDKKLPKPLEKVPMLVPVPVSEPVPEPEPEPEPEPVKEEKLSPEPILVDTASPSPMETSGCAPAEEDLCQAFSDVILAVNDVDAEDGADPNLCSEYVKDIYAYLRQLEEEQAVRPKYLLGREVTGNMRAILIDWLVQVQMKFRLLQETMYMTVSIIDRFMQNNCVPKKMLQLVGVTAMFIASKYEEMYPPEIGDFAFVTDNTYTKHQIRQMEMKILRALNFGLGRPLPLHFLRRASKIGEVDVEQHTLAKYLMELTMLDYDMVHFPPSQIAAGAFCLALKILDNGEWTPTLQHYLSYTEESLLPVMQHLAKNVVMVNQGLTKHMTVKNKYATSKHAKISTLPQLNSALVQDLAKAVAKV
`CC(C)(CO)CNS(=O)(=O)c1ccc(NC=C2C(=O)Nc3ccc4ncsc4c32)cc1` [Compound A1] came in with a concentration for half-maximal inhibition (IC50) of 1 to 10 nM. For `O=C1Nc2ccc3ncsc3c2C1=CNc1ccc(S(=O)(=O)Nc2ccccn2)cc1` [Compound A2] the value was 51 to 100 nM. The result for `O=C1Nc2ccc3ncsc3c2C1=CNc1ccc(S(=O)(=O)NCc2ccncc2)cc1` [Compound A3] reads 11 to 50 nM.

These data come from patent US6620818B1, “Method for reducing the severity of side effects of chemotherapy and/or radiation therapy” (priority 2001, dated 2003).
